Experimental findings from patent publication US9951058B2, “Compound, pharmaceutically acceptable salt or optical isomer thereof, method for preparing the same, and pharmaceutical composition for prevention or treatment of viral diseases containing same as active ingredient” (Korea Research Institute of Chemical Technology, priority 2012, dated 2018) are described below.

By EC50 is commonly meant the concentration giving half of the maximal effect.

The test system of series [1] is poliovirus 3 (PV3). Nature of the series: microbe, parasite or virus in culture. Particulars: Enterovirus C, 72 h, read-out: EC50 PV3. Format: cell-based.
Series [2] concerns coxsackievirus B3 (Cox B3). Kind of series: Multicycle cytopathic effect (CPE) reduction assay. Format: cell-based. Particulars: Enterovirus B, B3, 72 h, read-out: EC50 CoxB3. In general terms: Protection from cytopathic effect is a common read-out in antiviral testing.
Series [3] has as its system HRV 21. Kind of series: Cytopathic effect (CPE) inhibition assay. Format: cell-based, human rhinovirus. Particulars: Human rhinovirus sp., 72 h; host cell HeLa, 3 days, MEM/2% FBS, MTT assay; read-out: EC50 HRV 21.
Series [4] relates to coxsackievirus B1 (Cox B1). Nature of the series: Multicycle cytopathic effect (CPE) reduction assay. Format: cell-based. Particulars: Enterovirus B, B1, 72 h, read-out: EC50 CoxB1.
Series [5] relates to HRV 71. Kind of series: Cytopathic effect (CPE) inhibition assay. The series is classed as cell-based, human rhinovirus. Particulars: Human rhinovirus sp., 72 h; host cell HeLa, 3 days, MEM/2% FBS, MTT assay; read-out: EC50 HRV 71.
The test system of series [6] is HRV 14. Nature of the series: Cytopathic effect (CPE) inhibition assay. Particulars: Human rhinovirus sp., HeLa, 72 h, host cell HeLa, 3 days, MEM/2% FBS, MTT assay; read-out: EC50 HRV 14. The series is classed as cell-based, human rhinovirus.
Series [7] is described as follows: Cytotoxicity (CC50) in multicycle CPE reduction assay, MTS. Particulars: human.
A short description of series [8]: in vitro. Particulars: human.

In brackets after ≈: the same amount, converted by molar mass.

Take `CC(C)c1ccc2c(c1)OC1(O)c3ccccc3C(=O)C21NC(=O)C(=O)c1c[nH]c2ccccc12` (stereo not shown) [Example 1, N-(4b-hydroxy-7-isopropyl-10-oxo-9b, 10-dihydro-4bH-benzo[d]indeno[1,2-b]furan-9b-yl)-2-(1H-indol-3-yl)-2-oxo acetamide]: the EC50 was 1.1 µg/mL (≈ 2.36 µM) in series [1]; 0.061 µg/mL (≈ 0.131 µM) in series [2]; > 7.91 µg/mL in series [3]; 0.017 µg/mL (≈ 0.0364 µM) in series [4]; > 7.91 µg/mL in series [5]; < 1 µg/mL in series [6]. Moreover, in series [7], the CC50 at 3 days turned out to be 8.57 µg/mL (≈ 18.4 µM). In addition, the CC50 in series [8] is 7.91 µg/mL (≈ 17 µM).
For `CC(C)c1ccc2c(c1)OC1(O)c3ccccc3C(=O)C21NC(=O)C(=O)c1cccs1` (stereo not shown) [Example 2, N-(4b-hydroxy-7-isopropyl-10-oxo-9b, 10-dihydro-4bH-indeno[1,2-b]benzofuran-9b-yl)-2-oxo-2-(thiopen-2-yl)acetamide], the EC50 in series [1] is < 1 µg/mL; in series [2] it was < 0.01 µg/mL; in series [3], > 8.57 µg/mL; in series [4], < 0.01 µg/mL; in series [5], > 8.57 µg/mL; in series [6], < 0.1 µg/mL. For the same molecule, the CC50 at 3 days in series [7] was 9.02 µg/mL (≈ 20.8 µM). In addition, the CC50 in series [8] is 8.57 µg/mL (≈ 19.8 µM).
For `CC(C)c1ccc2c(c1)OC1(O)c3ccccc3C(=O)C21NC(=O)C(=O)Cc1ccccc1[N+](=O)[O-]` (stereo not shown) [Example 3, N-(4b-hydroxy-7-isopropyl-10-oxo-9b, 10-dihydro-4bH-indeno[1,2-b]benzofuran-9b-yl)-3-(2-nitrophenyl)-2-oxo propanamide], the EC50 in series [1] is < 1 µg/mL; in series [2] it was 0.015 µg/mL (≈ 0.0308 µM); in series [3], > 1.76 µg/mL; in series [4] it was 0.013 µg/mL (≈ 0.0267 µM); in series [5], > 1.76 µg/mL; in series [6], > 1.76 µg/mL. For the same molecule, the CC50 at 3 days in series [7] came out at 2.38 µg/mL (≈ 4.89 µM). In addition, in series [8], the CC50 came to 1.76 µg/mL (≈ 3.62 µM).
Consider `CC(=O)C(=O)NC12C(=O)c3ccccc3C1(O)Oc1cc(C(C)C)ccc12` (stereo not shown) [Example 4, N-(4b-hydroxy-7-isopropyl-10-oxo-9b, 10-dihydro-4bH-indeno[1,2-b]benzofuran-9b-yl)-2-oxo propanamide], for which the EC50 was < 1 µg/mL in series [1]; < 0.01 µg/mL in series [2]; > 9.02 µg/mL in series [3]; < 0.01 µg/mL in series [4]; > 9.02 µg/mL in series [5]; < 0.1 µg/mL in series [6]. For the same molecule, the CC50 at 3 days in series [7] is > 10 µg/mL. In series [8], this molecule showed a CC50 of 9.02 µg/mL (≈ 24.7 µM).
In the case of `CCCC(=O)C(=O)NC12C(=O)c3ccccc3C1(O)Oc1cc(C(C)C)ccc12` (stereo not shown) [Example 5, N-(4b-hydroxy-7-isopropyl-10-oxo-9b, 10-dihydro-4bH-indeno[1,2-b]benzofuran-9b-yl)-2-oxo pentanamide], the EC50 was < 0.1 µg/mL in series [1]; < 0.01 µg/mL in series [2]; > 8.49 µg/mL in series [3]; < 0.01 µg/mL in series [4]; > 8.49 µg/mL in series [5]; < 0.1 µg/mL in series [6]. The CC50 at 3 days in series [7] was > 10 µg/mL. Further, the CC50 in series [8] turned out to be 8.49 µg/mL (≈ 21.6 µM).
For `CC(C)c1ccc2c(c1)OC1(O)c3ccccc3C(=O)C21NC(=O)CCC(=O)N(C)C` (stereo not shown) [Example 44, N1-(4b-hydroxy-7-isopropyl-10-oxo-4b, 10-dihydro-9bH-indeno[1,2-b]benzofuran-9b-yl)-N4, N4-dimethyl succinamide], the results for the EC50 in series [1], in series [2] and in series [4] were < 10 µg/mL, < 0.1 µg/mL and < 0.1 µg/mL, respectively. The CC50 at 3 days in series [7] was > 10 µg/mL.
In the case of `CC(C)NC(=O)CCC(=O)NC12C(=O)c3ccccc3C1(O)Oc1cc(C(C)C)ccc12` (stereo not shown) [Example 45, N1-(4b-hydroxy-7-isopropyl-10-oxo-4b, 10-dihydro-9bH-indeno[1,2-b]benzofuran-9b-yl)-N4-isopropyl succinamide], the EC50 in series [1] was < 10 µg/mL; in series [2], < 0.1 µg/mL; in series [4] it was < 0.1 µg/mL. Further, the CC50 at 3 days in series [7] is > 10 µg/mL. Moreover, the CC50 in series [8] was > 10 µg/mL.
